What was measured:
Experiment in all cases: relative viability (nuclei count vs DMSO), 5 days (fraction); higher = more cells survive
[1] = compound: C1=CC2=NC=CN=C2C=C1/C=C/3\C(=O)NC(=O)S3 + Cc1nc(NC(=O)N2CCC[C@H]2C(N)=O)sc1-c1ccnc(C(C)(C)C(F)(F)F)c1 [Alpelisib] (partner 2 µM)
Outline: (§1)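 Lung cancer cell lines were pin-tool dosed in 1536-well plates on the day after seeding, with either a lone drug or a fixed anchor-drug dose plus five library-drug doses (not always all listed) in √10 steps. Nuclei were counted on 4× images after 5 days. Relative viability is the ratio of treated-well to vehicle-well nuclei counts, with each value a median of duplicate plates.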

BGJ398 + Crizotinib = compound: CCN1CCN(c2ccc(Nc3cc(N(C)C(=O)Nc4c(Cl)c(OC)cc(OC)c4Cl)ncn3)cc2)CC1 [BGJ398] + C[C@@H](Oc1cc(-c2cnn(C3CCNCC3)c2)cnc1N)c1c(Cl)ccc(F)c1Cl [Crizotinib] (partner 1 µM)
Outline: as §1

[2] = compound: C1=CC2=NC=CN=C2C=C1/C=C/3\C(=O)NC(=O)S3 + Cc1nc(Nc2ncc(C(=O)Nc3c(C)cccc3Cl)s2)cc(N2CCN(CCO)CC2)n1 [Dasatinib] (partner 0.075 µM)
Outline: as §1

BGJ398 + Foretinib = compound: CCN1CCN(c2ccc(Nc3cc(N(C)C(=O)Nc4c(Cl)c(OC)cc(OC)c4Cl)ncn3)cc2)CC1 [BGJ398] + COc1cc2c(Oc3ccc(NC(=O)C4(C(=O)Nc5ccc(F)cc5)CC4)cc3F)ccnc2cc1OCCCN1CCOCC1 [Foretinib] (partner 0.25 µM)
Outline: as §1

Cell Line | relative viability ([1]; first compound 0.02 µM) | relative viability ([1]; first compound 0.06325 µM) | relative viability ([1]; first compound 0.2 µM) | relative viability ([1]; first compound 0.6325 µM) | relative viability ([1]; first compound 2 µM) | relative viability (BGJ398 + Crizotinib; first compound 0.01 µM) | relative viability (BGJ398 + Crizotinib; first compound 0.03162 µM) | relative viability (BGJ398 + Crizotinib; first compound 0.1 µM) | relative viability (BGJ398 + Crizotinib; first compound 0.3162 µM) | relative viability (BGJ398 + Crizotinib; first compound 1 µM) | relative viability ([2]; first compound 0.02 µM) | relative viability ([2]; first compound 0.06325 µM) | relative viability ([2]; first compound 0.2 µM) | relative viability ([2]; first compound 0.6325 µM) | relative viability ([2]; first compound 2 µM) | relative viability (BGJ398 + Foretinib; first compound 0.01 µM) | relative viability (BGJ398 + Foretinib; first compound 0.03162 µM) | relative viability (BGJ398 + Foretinib; first compound 0.1 µM) | relative viability (BGJ398 + Foretinib; first compound 0.3162 µM) | relative viability (BGJ398 + Foretinib; first compound 1 µM)
HCC-44 | 0.693 | 0.893 | 0.852 | 0.764 | 0.745 | 0.751 | 0.738 | 0.86 | 0.817 | 0.701 | – | – | – | – | – | – | – | – | – | –
HCC-78 | 0.287 | 0.304 | 0.378 | 0.335 | 0.294 | 0.379 | 0.313 | 0.394 | 0.334 | 0.348 | 0.381 | 0.705 | 0.517 | 0.392 | 0.184 | 0.563 | 0.597 | 0.504 | 0.614 | 0.549
HCC-366 | 0.391 | 0.488 | 0.432 | 0.361 | 0.259 | 0.474 | 0.66 | 0.768 | 0.627 | 0.59 | 0.613 | – | 0.645 | 0.552 | 0.0998 | 0.924 | 0.883 | 0.944 | 0.89 | 1.08
HCC-827 | 1.05 | 0.947 | 1.04 | 0.925 | 0.911 | 0.964 | – | 0.92 | 0.973 | 0.938 | 0.338 | 0.194 | 0.267 | 0.301 | 0.266 | 0.926 | – | 1.02 | 1 | 1.13
HOP-62 | 0.898 | 1.02 | 1.11 | 1.09 | 1.05 | 0.755 | 1 | 0.861 | 1.13 | 0.737 | 0.651 | 0.736 | 0.605 | 0.621 | 0.503 | 0.939 | 1.13 | 1.18 | 1.19 | 1.07
IA-LM | 0.586 | 0.713 | 0.64 | 0.749 | 0.764 | 0.91 | 0.996 | 0.657 | 0.908 | 0.793 | – | – | – | – | – | 1.2 | 1.08 | 1.42 | 1.15 | 1.14
LC-2-ad | 0.785 | 0.975 | 0.832 | 0.812 | 0.686 | 0.446 | 0.451 | 0.444 | 0.487 | 0.476 | 0.843 | 0.528 | 0.746 | 0.622 | 0.256 | 1.05 | 0.839 | 1.02 | 0.963 | 0.99
LCLC-97TM1 | 0.234 | 0.267 | 0.294 | 0.268 | 0.178 | 0.34 | 0.335 | 0.317 | 0.463 | 0.267 | 0.974 | 0.762 | 0.775 | 0.8 | 0.306 | 0.813 | 0.923 | 0.947 | 0.925 | 1.03
LCLC-103H | 0.876 | 0.906 | 1.01 | 1.03 | 0.925 | 1.02 | 1.03 | 1.03 | 0.96 | 0.827 | 0.427 | 0.571 | 0.474 | 0.461 | 0.214 | 0.79 | 0.765 | 0.755 | 0.746 | 0.541
LK-2 | 1.17 | 1.1 | 1.08 | 0.984 | 0.946 | 0.206 | 0.227 | 0.214 | 0.224 | 0.231 | 0.291 | 0.349 | 0.306 | 0.297 | 0.189 | 1.28 | 0.947 | 0.897 | 0.618 | 0.309
NCI-H522 | – | – | – | – | – | – | – | – | – | – | 0.899 | 1.06 | 0.942 | 1.09 | 0.714 | – | – | – | – | –
NCI-H1299 | 1.07 | 1.1 | 1.05 | 1.02 | 0.993 | 0.94 | 0.864 | 0.951 | 0.969 | 0.97 | – | – | – | – | – | 1.09 | 1.06 | 1.09 | 1.15 | 1.03
NCI-H1395 | 0.934 | 1.14 | 1.32 | 0.922 | 1.39 | – | – | – | – | – | 0.44 | 0.386 | 0.417 | 0.417 | 0.354 | 0.877 | 0.955 | 0.819 | 0.756 | 0.614
NCI-H1623 | – | – | – | – | – | – | – | – | – | – | 0.511 | 0.523 | 0.526 | 0.524 | 0.422 | 0.907 | 0.723 | 0.937 | 0.84 | 0.713
NCI-H1650 | – | – | – | – | – | 0.955 | 1.01 | 0.862 | 0.879 | 0.937 | 0.274 | 0.355 | 0.364 | 0.289 | 0.248 | 1.31 | – | 1.17 | 0.857 | 1.08
NCI-H1703 | 0.362 | 0.306 | 0.296 | 0.386 | 0.267 | 0.694 | 1.17 | 0.796 | 0.638 | 0.863 | – | – | – | – | – | 0.37 | 0.329 | 0.342 | 0.278 | 0.331
NCI-H1792 | 0.62 | 0.501 | 0.644 | 0.658 | 0.657 | 0.939 | 0.999 | 1.08 | 0.99 | 0.93 | 0.763 | 0.653 | 0.807 | 0.818 | 0.311 | – | – | – | – | –
NCI-H1793 | 0.655 | 0.811 | 0.728 | 0.709 | 0.742 | – | – | – | – | – | 0.407 | 0.39 | 0.368 | 0.354 | 0.328 | 0.725 | 0.579 | 0.557 | 0.725 | 0.666
NCI-H2342 | – | – | – | – | – | – | – | – | – | – | 0.305 | 0.315 | 0.334 | 0.309 | 0.283 | 1.05 | 0.98 | 1.08 | 1.07 | 1.1
SW 900 | – | – | – | – | – | – | – | – | – | – | 0.499 | 0.788 | 0.625 | 0.883 | 0.486 | 0.856 | 0.823 | 0.895 | 0.737 | 0.668

From the supplement of paper PMC10307832
